We go through 21 molecules from PMC6225304, “Design, Synthesis, and Neuroprotective Effects of a Series of Pyrazolines against 6-Hydroxydopamine-Induced Oxidative Stress” (Molecules : A Journal of Synthetic Chemistry and Natural …, 2018).

Data set [1] has as its system differentiated PC-12 Adh cells. The experiment in a line: WST-1 cell viability assay for non-cytotoxic concentrations. In kind it is cell-based, rat. To be noted: for IC50: Rattus norvegicus, read-out: IC50 (cell viability assay). As for the experimental part: (§1) PC-12 Adh cells were cultured in 10% horse serum, 5% fetal bovine serum, and 1% penicillin-streptomycin containing DMEM growth medium, at 37 °C in a humidified incubator with 5% CO2. The proliferating cells were passaged 1:2 to new 25 and/or 75 cm^2 flasks and cell stocks were prepared in order to use in future experiments. In order to induce PC-12 Adh cell differentiation into neuronal phenotype, growth medium was changed with 1% fetal bovine serum, 1% penicillin-streptomycin and 100 nM NGF containing DMEM differentiation medium.
Differentiated PC-12 Adh cells were stained with Trypan blue solution and counted by a cell counter device (Cedex XS, Innovatis, Malvern, PA, USA) in order to determine the appropriate cell numbers before the experiments.
In order to obtain non-cytotoxic concentrations of the compounds, the viability of neuronal cells was measured by using 2-(4-iodophenyl)-3-(4-nitrophenyl)-5-(2,4-disulfophenyl)-2H-tetrazolium sodium salt (WST-1) assay (Roche, Mannheim, Germany). The test is based on the cleavage of the tetrazolium salt WST-1 in formazan by mitochondrial dehydrogenases in viable cells. The formazan dye was quantified in a scanning multiwell spectrophotometer by measuring the absorbance of the dye at 420 nm. The differentiated PC-12 Adh cells were scratched and plated onto 96-well culture plates at 5 × 10^3 density per well. […] After the incubation period, the cell proliferation reagent WST-1 (10 μL per well) was added to the wells; and absorbances were measured after 3 h using a Cytation 3 cell imaging multi-mode reader at 420 nm (BioTek, Winooski, VT, USA). The measured absorbances directly correlated to the number of viable cells.
(Formazan colour is commonly taken as a measure of viable cells.)

Data set [2] has as its system differentiated PC-12 Adh cells. The data set can be described thus: Neuroprotective activity against 6-OHDA-induced neurotoxicity (WST-1 cell viability). Type of data set: cell-based, rat. To be noted: for induction in cell viability percentage compared with the 6-OHDA-positive control group (statistical analysis): 100 µg/mL, one-way ANOVA and Tukey’s post hoc test, ** p < 0.01. As for the experimental part:
as §1
(§2) The differentiated PC-12 Adh cells were scratched and plated onto 96-well culture plates at 5 × 10^3 density per well. […] After 24 h, the neuroprotective effects of the compounds were determined by WST-1 cell viability assay as explained above. The graphics were drawn according to the cell viability, which was expressed as percentage of the surviving control cells in the study.
(§3) The graphics were drawn with Graphpad Prism 6.0 software and statistically analyzed using one-way ANOVA and Tukey’s post hoc test.

Data set [3] in a line: Neuroprotective activity against 6-OHDA-induced neurotoxicity (WST-1 cell viability). In kind it is cell-based, rat. The following applies: rat, 150 µM 6-OHDA alone for 24 h (positive control); % of the control. As for the experimental part: as §1, §2, §3
[4] abbreviates: differentiated PC-12 Adh cells, 24 h treatment, WST-1.
The mark [5] stands for this setting: 100 µg/mL compound for 6 h, then 150 µM 6-OHDA for 24 h.

Molecules are shown by their SMILES. “And” between values parts separate entries of the source, which are not always exact repeats. Equal values may be shown once. Read-outs that look alike come from different tables or passages of the source.

As to `Cc1ccc(C2CC(c3ccco3)=NN2c2ccc(S(N)(=O)=O)cc2)cc1` (centres unmarked) [Compound 3i, 1-(4-Sulfonamidophenyl)-3-(2-furanyl)-5-(4-methylphenyl)-2-pyrazoline], the IC50 in data set [1] (setting [4]) came to 205 µg/mL.
For the molecule `Brc1ccc(N2N=C(c3cccs3)CC2c2ccc3c(c2)OCO3)cc1` (centres unmarked) [Compound 4e, 1-(4-Bromophenyl)-3-(2-thienyl)-5-(1,3-benzodioxol-5-yl)-2-pyrazoline], the IC50 in data set [1] (setting [4]) is over 400 µg/mL.
Take `O=C(/C=C/c1ccc2c(c1)OCO2)c1cccs1` [Compound 2, 1-(2-Thienyl)-3-aryl-2-propen-1-one]: the “reduction in cell viability” value in data set [2] (setting [5]) is reported as 34.1%. Besides, in data set [1] (setting [4]), the IC50 is 345 µg/mL.
Consider `Cc1ccc(C2CC(c3ccco3)=NN2c2ccc(Cl)cc2)cc1` (centres unmarked) [Compound 3d, 1-(4-Chlorophenyl)-3-(2-furanyl)-5-(4-methylphenyl)-2-pyrazoline], for which the IC50 in data set [1] (setting [4]) is over 400 µg/mL.
As for `Cc1ccc(N2N=C(c3cccs3)CC2c2ccc3c(c2)OCO3)cc1` (centres unmarked) [Compound 4f, 1-(4-Methylphenyl)-3-(2-thienyl)-5-(1,3-benzodioxol-5-yl)-2-pyrazoline], the IC50 in data set [1] (setting [4]) is 239 µg/mL.
As to `CS(=O)(=O)c1ccc(N2N=C(c3cccs3)CC2c2ccc3c(c2)OCO3)cc1` (centres unmarked) [Compound 4h, 1-(4-Methylsulfonylphenyl)-3-(2-thienyl)-5-(1,3-benzodioxol-5-yl)-2-pyrazoline], the “reduction in cell viability” value in data set [2] (setting [5]) worked out at 23%. For the same molecule, the “induction in cell viability percentage compared with the 6-OHDA-positive control group (statistical analysis)” value in data set [2] is “significant”. Also, the half-inhibitory concentration (IC50) in data set [1] (setting [4]) was over 400 µg/mL.
Turning to `Clc1ccc(N2N=C(c3cccs3)CC2c2ccc3c(c2)OCO3)cc1` (centres unmarked) [Compound 4d, 1-(4-Chlorophenyl)-3-(2-thienyl)-5-(1,3-benzodioxol-5-yl)-2-pyrazoline], the IC50 in data set [1] (setting [4]) is over 400 µg/mL.
In the case of `c1ccc(N2N=C(c3cccs3)CC2c2ccc3c(c2)OCO3)cc1` (centres unmarked) [Compound 4a, 1-Phenyl-3-(2-thienyl)-5-(1,3-benzodioxol-5-yl)-2-pyrazoline], in data set [1] (setting [4]), the IC50 was over 400 µg/mL.
Consider `N#Cc1ccc(N2N=C(c3cccs3)CC2c2ccc3c(c2)OCO3)cc1` (centres unmarked) [Compound 4b, 1-(4-Cyanophenyl)-3-(2-thienyl)-5-(1,3-benzodioxol-5-yl)-2-pyrazoline], for which the IC50 in data set [1] (setting [4]) was over 400 µg/mL.
The molecule `Cc1ccc(/C=C/C(=O)c2ccco2)cc1` [Compound 1, 1-(2-Furanyl)-3-aryl-2-propen-1-one] displayed a melting point of 111 to 113 °C. For the same molecule, the “reduction in cell viability” value in data set [2] (10 µg/mL compound for 6 h, then 150 µM 6-OHDA for 24 h) is listed as 40%. In data set [2] (setting [5]), the “reduction in cell viability” value was found to be 97%. In data set [1] (setting [4]), the IC50 came to 12 µg/mL. Besides, in data set [1] (differentiated PC-12 Adh cells, 100 µg/mL), the “cytotoxicity (effect on cell viability, in words)” value is “highly cytotoxic”.
Regarding `Cc1ccc(C2CC(c3ccco3)=NN2c2ccc(S(C)(=O)=O)cc2)cc1` (centres unmarked) [Compound 3h, 1-(4-Methylsulfonylphenyl)-3-(2-furanyl)-5-(4-methylphenyl)-2-pyrazoline], the “reduction in cell viability” value in data set [2] (setting [5]) is 20%. Also, the “induction in cell viability percentage compared with the 6-OHDA-positive control group (statistical analysis)” value in data set [2] is on record as “significant”. Also, in data set [1] (setting [4]), the IC50 is over 400 µg/mL.
In the case of `Cc1ccc(C2CC(c3ccco3)=NN2c2ccccc2)cc1` (centres unmarked) [Compound 3a, 1-Phenyl-3-(2-furanyl)-5-(4-methylphenyl)-2-pyrazoline], the IC50 in data set [1] (setting [4]) was over 400 µg/mL.
`Cc1ccc(C2CC(c3ccco3)=NN2c2ccc(F)cc2)cc1` (centres unmarked) [Compound 3c, 1-(4-Fluorophenyl)-3-(2-furanyl)-5-(4-methylphenyl)-2-pyrazoline]: the IC50 in data set [1] (setting [4]) stood at 353 µg/mL.
Regarding `COc1ccc(N2N=C(c3cccs3)CC2c2ccc3c(c2)OCO3)cc1` (centres unmarked) [Compound 4g, 1-(4-Methoxyphenyl)-3-(2-thienyl)-5-(1,3-benzodioxol-5-yl)-2-pyrazoline], the IC50 in data set [1] (setting [4]) turned out to be 252 µg/mL.
On the same count and under the same terms, with `Cc1ccc(C2CC(c3ccco3)=NN2c2ccc(Br)cc2)cc1` (centres unmarked) [Compound 3e, 1-(4-Bromophenyl)-3-(2-furanyl)-5-(4-methylphenyl)-2-pyrazoline] the figure was 398 µg/mL; with `COc1ccc(N2N=C(c3ccco3)CC2c2ccc(C)cc2)cc1` (centres unmarked) [Compound 3g, 1-(4-Methoxyphenyl)-3-(2-furanyl)-5-(4-methylphenyl)-2-pyrazoline], over 400 µg/mL; with `Cc1ccc(C2CC(c3ccco3)=NN2c2ccc(C)cc2)cc1` (centres unmarked) [Compound 3f, 1-(4-Methylphenyl)-3-(2-furanyl)-5-(4-methylphenyl)-2-pyrazoline], over 400 µg/mL.
For the molecule `NCCc1cc(O)c(O)cc1O` [Compound 6-OHDA, 6-hydroxydopamine], the viability at 24 h, 150 µM in data set [3] came to 57%. Also, the “reduction in cell viability” value in data set [2] (150 µM 6-OHDA alone for 24 h (positive control)) is 42.13% and 43% and 42%. For the same molecule, the IC50 in data set [1] (PC-12, 24 h) was found to be 150 µM.
`Cc1ccc(C2CC(c3ccco3)=NN2c2ccc(C#N)cc2)cc1` (centres unmarked) [Compound 3b, 1-(4-Cyanophenyl)-3-(2-furanyl)-5-(4-methylphenyl)-2-pyrazoline]: in data set [1] (setting [4]), the IC50 was found to be 204 µg/mL.
On the same count and under the same terms, with `NS(=O)(=O)c1ccc(N2N=C(c3cccs3)CC2c2ccc3c(c2)OCO3)cc1` (centres unmarked) [Compound 4i, 1-(4-Sulfonamidophenyl)-3-(2-thienyl)-5-(1,3-benzodioxol-5-yl)-2-pyrazoline] the figure was over 400 µg/mL; with `Fc1ccc(N2N=C(c3cccs3)CC2c2ccc3c(c2)OCO3)cc1` (centres unmarked) [Compound 4c, 1-(4-Fluorophenyl)-3-(2-thienyl)-5-(1,3-benzodioxol-5-yl)-2-pyrazoline], over 400 µg/mL.

One may read the IC50 as the concentration at which inhibition is half-maximal. In general, melting point refers to the temperature, or range, at which the solid turns liquid. One may read the viability as a read-out of living cells in per cent, often relative to untreated cells. Low readings indicate more harm to the cells, high ones less harm to the cells.
